Measured values as given in patent US6444612B1, “Use of 5-amino-pyrazol-derivatives for combating micro-organisms” (Bayer Aktiengesellschaft, priority 1998, dated 2002).

system: Venturia inaequalis; assay: Venturia test (apple)/protective; format: in vivo; settings: protective, application rate 100 g/ha, evaluation 12 days after inoculation, 100% = no infection
Procedure: Venturia Test (Apple)/Protective
(§1) Solvent: 47 parts by weight of acetone
(§2) Emulsifier: 3 parts by weight of alkylaryl polyglycol ether
(§3) To produce a suitable preparation of active compound, 1 part by weight of active compound is mixed with the stated amounts of solvent and emulsifier, and the concentrate is diluted with water to the desired concentration.
To test for protective activity, young plants are sprayed with the preparation of active compound at the stated application rate. After the spray coating has dried on, the plants are inoculated with an aqueous conidia suspension of the apple pathogen Venturia inaequalis and then remain in an incubation cabin at about 20° C. and 100% relative atmospheric humidity for 1 day.
The plants are then placed in the greenhouse at about 21° C. and a relative atmospheric humidity of about 90%.
Evaluation is carried out 12 days after the inoculation. 0% means an efficacy which corresponds to that of the control, whereas an efficacy of 100% means that no infection is observed.

| SMILES | Efficacy in % [%] |
| --- | --- |
| CCOC(=O)c1c(CC)nn(C)c1NC(=O)Cc1ccc(-c2ccc(OC(F)(F)F)cc2)cc1 [drawing 291] | 93 |
| CCc1nn(C)c(NC(=O)Cc2ccc(-c3ccc(OC(F)(F)F)cc3)cc2)c1Cl [drawing 292] | 96 |
| CCOC(=O)c1c(CC)nn(C)c1NC(=O)Cc1cccc(Oc2ccc(OC(F)(F)F)cc2)c1 [drawing 290] | 90 |
| CCc1cc(NC(=O)Cc2ccc(-c3ccc(OC(F)(F)F)cc3)cc2)n(C)n1 | 96 |

system: not given; assay: not given; settings: not given

| SMILES | melting point [°C] |
| --- | --- |
| CCc1nn(C)c(NC(=O)Cc2ccc(Br)cc2)c1Cl [Example 5, 5-(4-bromophenylacetyl)-amino-4-chloro-3-ethyl-1-methylpyrazole] | 167 to 168 |
| CCOC(=O)c1c(CC)nn(C)c1NC(=O)Cc1ccc(OC)cc1 [Example 1, 4-ethoxycarbonyl-3-ethyl-5-(4-methoxyphenylacetyl)-amino-1-methylpyrazole] | 112 to 113 |

system: Podosphaera leucotricha; assay: Podosphaera test (apple)/protective; format: in vivo; settings: protective, application rate 100 g/ha, evaluation 10 days after inoculation, 100% = no infection
Procedure: Podosphaera Test (Apple)/Protective
as §1, §2, §3
(§4) To test for protective activity, young plants are sprayed with the preparation of active compound at the stated application rate. After the spray coating has dried on, the plants are inoculated with an aqueous spore suspension of the apple mildew pathogen Podosphaera leucotricha. The plants are then placed in a greenhouse at about 23° C. and a relative atmospheric humidity of about 70%.
Evaluation is carried out 10 days after the inoculation. 0% means an efficacy which corresponds to that of the control, whereas an efficacy of 100% means that no infection is observed.

| SMILES | Efficacy in % [%] |
| --- | --- |
| CCOC(=O)c1c(CC)nn(C)c1NC(=O)Cc1ccc(-c2ccc(OC(F)(F)F)cc2)cc1 [drawing 285] | 100 |
| CCOC(=O)c1c(CC)nn(C)c1NC(=O)Cc1cccc(Oc2ccc(OC(F)(F)F)cc2)c1 [drawing 284] | 92 |
| CCc1nn(C)c(NC(=O)Cc2ccc(-c3ccc(OC(F)(F)F)cc3)cc2)c1Cl [drawing 286] | 100 |

system: Sphaerotheca fuliginea; assay: Sphaerotheca test (cucumber)/protective; format: in vivo; settings: protective, application rate 100 g/ha, evaluation 10 days after inoculation, 100% = no infection
Procedure: Sphaerotheca Test (Cucumber)/Protective
as §1, §2, §3
as §4, with “Sphaerotheca fuliginea.” for “the apple mildew pathogen Podosphaera leucotricha.”
Evalution is carried out 10 days after the inoculation. 0% means an efficacy which corresponds to that of the control, whereas an efficacy of 100% means that no infection is observed.

| SMILES | Efficacy in % [%] |
| --- | --- |
| CCOC(=O)c1c(CC)nn(C)c1NC(=O)Cc1ccc(-c2ccc(OC(F)(F)F)cc2)cc1 [drawing 287] | 100 |
| CCc1nn(C)c(NC(=O)Cc2ccc(-c3ccc(OC(F)(F)F)cc3)cc2)c1Cl [drawing 288] | 100 |

system: Erysiphe graminis f.sp. tritici; assay: Erysiphe test (wheat)/protective; format: in vivo; settings: protective, application rate 250 g/ha, evaluation 7 days after inoculation, 100% = no infection
Procedure: Erysiphe Test (Wheat)/Protective
(§5) Solvent: 25 parts by weight of N,N-dimethylacetamide
Emulsifier: 0.6 part by weight of alkylaryl polyglycol ether
as §3
To test for protective activity, young plants are sprayed with the preparation of active compound at the stated application rate.
After the spray coating has dried on, the plants are dusted with spores of Erysiphe graminis f.sp. tritici.
The plants are placed in a greenhouse at a temperature of about 20° C. and a relative atmospheric humidity of about 80% to promote the development of mildew pustules.
(§6) Evaluation is carried out 7 days after the inoculation. 0% means an efficacy which corresponds to that of the control, whereas an efficacy of 100% means that no infection is observed.

| SMILES | Efficacy in % [%] |
| --- | --- |
| CCOC(=O)c1c(CC)nn(C)c1NC(=O)Cc1cccc(Oc2ccc(Cl)cc2)c1 [drawing 282] | 100 |

system: not listed separately; assay: log P value (physical constant); format: physicochemical; settings: logP, Table 4

| SMILES | Physical constant (logP) |
| --- | --- |
| Cc1cc(NC(=O)Cc2ccc(Cl)cc2Cl)n(C)n1 [Example 121] | logP = 2.06 |
| CC(=NOC(C)(C)C)c1cccc(CC(=O)Nc2c(Cl)c(C)nn2C)c1 [Example 130] | logP = 3.53 |
| CC(=NOCc1ccc(C(F)(F)F)cc1)c1cccc(CC(=O)Nc2c(Cl)c(C)nn2C)c1 [Example 127] | logP = 3.83 |
| CCON=C(C)c1cccc(CC(=O)Nc2c(Cl)c(C)nn2C)c1 [Example 125] | logP = 2.88 |
| Cc1nn(C)c(NC(=O)Cc2ccccc2C(=O)O)c1Cl [Example 122] | logP = 1.50 |
| Cc1cc(-c2cccc(Cl)c2)cc(C)c1CC(=O)Nc1c(Cl)c(C)nn1C [Example 143] | logP = 3.79 |
| Cc1nn(C)c(NC(=O)Cc2ccc(-c3ccccc3)cc2)c1C#N [Example 150] | logP = 2.57 |
| Cc1ccc(Oc2ccccc2CC(=O)Nc2c(C#N)c(C)nn2C)c(C)c1 [Example 149] | logP = 3.17 |
| Cc1cc(C)c(-c2ccc(Cl)cc2)c(C)c1CC(=O)Nc1c(C#N)c(C)nn1C [Example 159] | logP = 3.70 |
| CCc1nn(C)c(NC(=O)Cc2ccc(OC(C)=O)cc2)c1C#N [Example 120] | logP = 1.84 |
| CCc1nn(C)c(NC(=O)Cc2c(C)cc(-c3ccc(Cl)cc3)cc2C)c1C#N [Example 166] | logP = 3.74 |
| CC(=NOCc1ccc(Cl)cc1Cl)c1cccc(CC(=O)Nc2c(Cl)c(C)nn2C)c1 [Example 129] | logP = 4.30 |
| Cc1cc(C)c(CC(=O)Nc2c(C#N)c(C)nn2C)c(C)c1 [Example 137] | logP = 2.36 |
| CC(=O)Oc1cccc(CC(=O)Nc2c(C#N)c(C)nn2C)c1 [Example 119] | logP = 1.88 |
| Cc1cc(C)cc(-c2cc(C)c(CC(=O)Nc3c(C#N)c(C)nn3C)c(C)c2)c1 [Example 152] | logP = 3.88 |
| CCc1nn(C)c(NC(=O)Cc2cc(-c3ccc(Cl)cc3)c(C)cc2C)c1C#N [Example 170] | logP = 3.77 |
| CCOC(=O)c1c(CC)nn(C)c1NC(=O)Cc1ccc(OCc2ccccc2)cc1 [Example 104] | logP = 3.26 |
| Cc1cc(C)c(-c2ccc(Cl)cc2)cc1CC(=O)Nc1c(Cl)c(C)nn1C [Example 146] | logP = 3.82 |

| SMILES | Physical constant (logP) |
| --- | --- |
| Cc1nn(C)c(NC(=O)Cc2c(F)cc(F)c(F)c2C(F)(F)F)c1Cl [Example 148] | logP = 2.60 |
| Cc1ccc(Oc2ccccc2CC(=O)Nc2c(Cl)c(C)nn2C)c(C)c1 [Example 138] | logP = 3.44 |
| Cc1nn(C)c(NC(=O)Cc2ccc(-c3ccccc3)cc2)c1Cl [Example 139] | logP = 2.81 |
| Cc1cc(C)c(-c2ccc(Cl)cc2)cc1CC(=O)Nc1c(C#N)c(C)nn1C [Example 158] | logP = 3.49 |
| CCc1nn(C)c(NC(=O)Cc2c(C)cc(-c3ccccc3OC)cc2C)c1C#N [Example 165] | logP = 3.20 |
| CCc1nn(C)c(NC(=O)Cc2c(C)cc(-c3cccc(Cl)c3)cc2C)c1C#N [Example 167] | logP = 3.70 |
| Cn1nc(C2CC2)c(Cl)c1NC(=O)Cc1ccc(Oc2ccc(C#N)cc2)cc1 [Example 110] | logP = 2.90 |
| Cc1ccc(-c2ccc(Cl)cc2)c(C)c1CC(=O)Nc1c(C#N)c(C)nn1C [Example 156] | logP = 3.43 |
| CCc1nn(C)c(NC(=O)Cc2ccccc2Oc2ccc(C)cc2C)c1C#N [Example 161] | logP = 3.44 |
| CCc1nn(C)c(NC(=O)Cc2c(F)cc(F)c(F)c2C(F)(F)F)c1C#N [Example 172] | logP = 2.59 |
| CON=C(C)c1cccc(CC(=O)Nc2c(Cl)c(C)nn2C)c1 [Example 124] | logP = 2.32 |
| CCc1nn(C)c(NC(=O)C=Cc2ccc(Oc3ccc([N+](=O)[O-])cc3)cc2)c1C#N [Example 108] | logP = 3.05 |
| CC(=NO)c1cccc(CC(=O)Nc2c(Cl)c(C)nn2C)c1 [Example 123] | logP = 1.85 |
| CCOC(=O)c1c(CC)nn(C)c1NC(=O)Cc1cccc(Oc2ccccc2)c1 [Example 111] | logP = 3.28 |
| Cc1cc(C)c(-c2ccccc2Cl)cc1CC(=O)Nc1c(C#N)c(C)nn1C [Example 157] | logP = 3.24 |
| Cc1cc(-c2cccc(Cl)c2)cc(C)c1CC(=O)Nc1c(C#N)c(C)nn1C [Example 155] | logP = 3.42 |
| Cc1cc(-c2ccc(Cl)cc2)cc(C)c1CC(=O)Nc1c(C#N)c(C)nn1C [Example 154] | logP = 3.46 |
| Cc1cc(C)cc(-c2cc(C)c(CC(=O)Nc3c(Cl)c(C)nn3C)c(C)c2)c1 [Example 141] | logP = 4.09 |

system: Pyrenophora teres; assay: Pyrenophora teres test (barley)/curative; format: in vivo; settings: curative, application rate 250 g/ha, evaluation 7 days after inoculation, 100% = no infection
Procedure: Pyrenophora Teres Test (Barley)/Curative
as §5
Emulsifier: 0.6 parts by weight of alkylaryl polyglycol ether
as §3
To test for curative activity, young plants are sprayed with a conidia suspension of Pyrenophora teres. The plants remain in an incubation cabin at 20° C. and 100% relative atmospheric humidity for 48 hours. The plants are then sprayed with the preparation of active compound at the stated application rate.
The plants are placed in a greenhouse at a temperature of about 20° C. and a relative atmospheric humidity of about 80%.
as §6

| SMILES | Efficacy in % [%] |
| --- | --- |
| CCOC(=O)c1c(CC)nn(C)c1NC(=O)Cc1cccc(Oc2ccc(Cl)cc2)c1 [drawing 283] | 100 |
